Values quoted from earlier work as cited in patent US12589118B2, “Method of prolonging the lifespan of patients with cerebral autosomal dominant arteriopathy with subcortical infarcts and leukoencephalopathy (CADASIL) using a cerebrolysin® preparation” (EVER NEURO PHARMA GMBH, priority 2017, dated 2026).

Legend:
[1] = 200-400 mg bid in 24 months
[2] = transcranial Doppler
[3] = transcranial Doppler; remark: listed apart in the source

Compound: C[C@H](O)[C@H](O)[C@H]1CNc2nc(N)[nH]c(=O)c2N1 [Sapropterin]
- primary end-point: mean difference in reactive hyperaemia index (improvement of peripheral vasoreactivity) [1]: not significant

Compound: CC(C)c1c(C(=O)Nc2ccccc2)c(-c2ccccc2)c(-c2ccc(F)cc2)n1CC[C@@H](O)C[C@@H](O)CC(=O)O [Atorvastatin]
- effect on cerebral blood flow [2]: no effects

Compound: N=C(N)NCCC[C@H](N)C(=O)O [L-arginine]
- vasoreactivity [3]: induced-vasoreactivity
